Laboratory results as given in patent publication USRE42152E1, “Aromatic-linked polyamine macrocyclic compounds with anti-HIV activity” (Genzyme Corporation, priority 1992, dated 2011).
Converted amounts (≈) assume the structure as drawn. Read-outs that look alike come from different tables or passages of the source. Values belong to the compound of their own block, whether it stands above or below them.

Experiments:
[1] = test system: HIV uncoating (or fusion); test: Sensitivity of viral RNA from freshly infected MT4 cells to RNase degradation (uncoating); assay type: cell-based; settings: radiolabelled viral particles, RNA harvested 4 hours after infection
Text: It was reasoned that if tincoating (fusion) was hampered, the viral capsid (or envelope) proteins would remain associated with the viral RNA genome and thus the RNA should be protected against RNase attack.

HIV-1 strain IIIb = test: Time-of-addition experiment, MT4 cells infected with HIV-1 IIIb, p24 antigen; assay type: cell-based; settings: HIV-1 IIIb at high multiplicity, p24 at 29 hours after infection
Protocol: To pinpoint the stage at which the compounds interact with the HIV replicative cycle, a time-of-addition experiment was carried out on MT4 cells infected with HIV-1 strain IIIb at high virus multiplicity to ensure that the virus replicative steps would be synchronised in the whole cell populations. Test compounds wife added 1, 2, 3, . . . 22, 23, 24 hours after infection, and vital p24 antigen production determined 29 hours after infection.
Depending on the stage at which compounds interact and the need for intracellular metabolism, addition of the compounds could be delayed for n hours without loss of activity.

HIV-1 (HTLV-IIIB) = test: microbe, parasite or virus in culture; assay type: cell-based; settings: MT-4 cells, 100 CCID50, 5 days, MTT
MT-4 cells = test: Cytotoxicity by MTT method in MT-4 cells; assay type: cell-based
HIV-1, strain IIIb = test: microbe, parasite or virus in culture; assay type: cell-based
Protocol: Adsorption was allowed for 2 hours at 37° C. […] Test compound was added after stimulation and virus adsorption.
(§1) IC50 and IC90 values were calculated by comparing the p24 antigen concentrations in supernatent of treated, infected cells and uncreated, infected cells at days 11 and 14 post infection.

HIV-1, BaL = test: microbe, parasite or virus in culture; assay type: cell-based
Protocol: Mononuclear cells were isolated from healthy, HIV-negative donors using Ficoll density separation. Cells (4×10^6/ml) were incubated for 5 days in 48 well plates (Costar) in monocyte medium consisting of RPMII640, supplemented with 20% ECS and 10% human serum. On day 5 non-adherent cells were washed out four times with warm PBS containing 2% human serum.
The monocytotropic strain of HIV-1, BaL, was used for the infection of these monocyte preparations (Pemo et al, 1 Exp Meal, 169, 933, 1989).
Adherent monocytes were exposed to […] of a 1:30 dilution of HIV-1, BaL for 30 minutes subsequently, monocyte medium was added to 1 ml/well. Adsorption was allowed for 24 hours at 37° C. Then, the wells were washed twice in order to remove excess virus and were cultivated in the presence of different drug concentrations. Thus, test compounds were added after adsorption. Every 3 to 4 days post infection the supernatant of the infected cultures was removed and replaced by fresh medium containing the test compound at the particular concentration. The concentration of viral p24 antigen was determined as described above.
as §1

Jurkat cells = test: Growth of exponentially growing cells (cell numbers); assay type: cell-based
HIV-2 (LAV-2 ROD) = test: MTT anti-viral screen, MT-4 cells challenged with HIV-2; assay type: cell-based; settings: Human immunodeficiency virus 2, MT4, 120 h, read-out: IC50 HIV-2 (ROD)
[2] = Cytotoxicity by MTT method in MT-4 cells; assay type: cell-based; settings: human
[3] = test system: HIV-1 IIIb, RF, HE and NDK strains; test: microbe, parasite or virus in culture; settings: Human immunodeficiency virus 1, IIIB, MT4, read-out: IC50 against IIIb, RF, HE and NDK strains
Protocol: The compounds of the invention were tested in a screen by the MTT method (I Vixol Methods […] [1988]). MT-4 cells (2.5×10^4/well) were challenged with HIV-1 (HTLV-IIIB) or HIV-2 (LAV-2 ROD) at a concentration of 100 CCID50 and incubated in the presence of various concentrations of the test compounds, which were added immediately after challenge with the virus. After 5 days culture at 37° C. in a CO2 incubator, the number of viable cells was assessed by the MTT (tetrazolium) method. […] The potential therapeutic usefulness was assessed by calculating a Selectivity Index (SI) corresponding to the ratio of CC50 to IC50.

[4] = test system: low-passage primary clinical isolates of HIV-1 (K31, D370, K6/2); settings: primary T4 cells; isolates K31 Zaire, D370 California, K6/2 Germany
Protocol: Primary T4 lymphocytes were purified from human spleens obtained from healthy donors by using a commercial kit (“Lympho-Kwik”) which combines reaction of cells with specific monoclonal antibodies and density gradient centrifugation to separate the cells. […] Cells were stimulated with 2 μg/ml PHA for 24 hours. Then they were spun down and infected with HIV-1, strain IIIb, by suspending the cells 10-fold concentrated in virus solution. Adsorption was allowed for 2 hours at 37° C. The inoculum was removed by centrifugation and the cells were re-suspended at their original concentration in fresh culture medium containing IL-2 (40 IE/ml). Test compound was added after stimulation and virus adsorption. Every 3 to 4 days post infection half of the supernatant of the infected cultures was removed and replaced by fresh medium containing the test compound at the particular concentration, The concentration of vital p24 antigen was determined in the supernatent by means of a commercial ELISA kit (Coulter) and served as a parameter for virus production.

gp120/41 mediated fusion = settings: HIV-1 IIIb infected HUT78 cells with MOLT4 cells
Text: Syncytium formation between chronically infected cells and uninfected cells reflects the gp120/41 mediated fusion process of vital entry.

HUT78 cells = settings: concentrations below 300 μg/ml; cell numbers 2, 3 and 4 days after seeding
[5] = Lymphocytes, HIV-1 IIIb, p24, day 11 post infection
[6] = Lymphocytes, HIV-1 IIIb, p24, day 14 post infection
[7] = Monocytes, HIV-1 BaL, p24, day 11 post infection
[8] = Monocytes, HIV-1 BaL, p24, day 14 post infection
[9] = concentrations below 300 μg/ml, cell numbers 2, 3 and 4 days after seeding

Structure (SMILES): O=c1[nH]cnc2c1ncn2[C@H]1CC[C@@H](CO)O1 [DDI]
resistance of viral RNA to degradation by RNase [1]: did not show this increased resistance

Structure (SMILES): CC(C)(C)NC(=O)[C@@H]1C[C@@H]2CCCC[C@@H]2CN1C[C@@H](O)[C@H](Cc1ccccc1)NC(=O)[C@H](CC(N)=O)NC(=O)c1ccc2ccccc2n1 [Ro31-8959]
n, hours addition could be delayed after infection without loss of activity (HIV-1 strain IIIb): 12 h | resistance of viral RNA to degradation by RNase [1]: did not show this increased resistance

Structure (SMILES): CC(C)=CCN1Cc2cc(Cl)cc3[nH]c(=S)n(c23)C[C@@H]1C [Compound R82913]
n, hours addition could be delayed after infection without loss of activity (HIV-1 strain IIIb): 6 h | resistance of viral RNA to degradation by RNase [1]: did not show this increased resistance

IC50 HIV-1 (IIIB) (HIV-1 (HTLV-IIIB)): <8 ng/mL | IC50 day 11 (HIV-1, strain IIIb; [5]): 0.45 ng/mL (≈ 1.68 nM) | IC90 day 11 (HIV-1, strain IIIb; [5]): 2.2 ng/mL (≈ 8.23 nM) | IC50 day 14 (HIV-1, strain IIIb; [6]): 0.43 ng/mL (≈ 1.61 nM) | IC90 day 14 (HIV-1, strain IIIb; [6]): 1.1 ng/mL (≈ 4.12 nM) | IC50 day 11 (HIV-1, BaL; [7]): 1 ng/mL (≈ 3.74 nM) | IC90 day 11 (HIV-1, BaL; [7]): 1.5 ng/mL (≈ 5.61 nM) | IC50 day 14 (HIV-1, BaL; [8]): 1 ng/mL (≈ 3.74 nM) | IC90 day 14 (HIV-1, BaL; [8]): 1.7 ng/mL (≈ 6.36 nM)
Structure (SMILES): Cc1cn([C@H]2C[C@H](N=[N+]=[N-])[C@@H](CO)O2)c(=O)[nH]c1=O [AZT, reference compound]
CC50 (HIV-1 (IIIB)) (MT-4 cells): >1000 ng/mL | TC50 (Jurkat cells; Jurkat): 184000 ng/mL (≈ 689000 nM) | n, hours addition could be delayed after infection without loss of activity (HIV-1 strain IIIb): ~4 h | TC50 (MT4 cells; MT4): 23000 ng/mL (≈ 86100 nM) | TC50 (MOLT4 cells; MOLT4): 37000 ng/mL (≈ 138000 nM) | TC50 (U937 cell line; U937): 5000 ng/mL (≈ 18700 nM)

Structure (SMILES): c1cc(CN2CCCNCCNCCCNCC2)ccc1CN1CCCNCCNCCCNCC1 [Compound B, 1,1′-[1,4-phenylenebis(methylene)]bis-1,4,8,11-tetraazacyclotetradecane]
IC50 (HIV-1 (HTLV-IIIB); Human immunodeficiency virus 1, IIIB, MT4, 120 h, read-out: IC50 HIV-1 (IIIB)): 6 ng/mL (≈ 11.9 nM) | IC50 (HIV-2 (LAV-2 ROD)): < 10 ng/mL | CC50 at 5 days ([2]; CC50 (HIV-1 (IIIB))): > 500000 ng/mL | CC50 at 5 days ([2]; CC50 (HIV-2 (ROD))): > 500000 ng/mL | IC50 [3]: 2 to 5 ng/mL (≈ 3.98 to 9.94 nM) | IC90 (HIV-1, strain IIIb; Human immunodeficiency virus 1, IIIB, Lymphocyte, primary T4 lymphocytes, stated for both primary cell types, read-out: IC90 values): 1 to 2 ng/mL (≈ 1.99 to 3.98 nM) | IC50 (HIV-1, strain IIIb; Human immunodeficiency virus 1, Lymphocyte, 264 h, Lymphocytes, HIV-1 IIIb, p24, day 11 post infection, read-out: IC50 day 11): < 1 ng/mL | IC90 (HIV-1, strain IIIb; Human immunodeficiency virus 1, Lymphocyte, 264 h, Lymphocytes, HIV-1 IIIb, p24, day 11 post infection, read-out: IC90 day 11): < 1 ng/mL | IC50 (HIV-1, strain IIIb; Human immunodeficiency virus 1, Lymphocyte, 336 h, Lymphocytes, HIV-1 IIIb, p24, day 14 post infection, read-out: IC50 day 14): < 1 ng/mL | IC90 (HIV-1, strain IIIb; Human immunodeficiency virus 1, Lymphocyte, 336 h, Lymphocytes, HIV-1 IIIb, p24, day 14 post infection, read-out: IC90 day 14): 1 ng/mL (≈ 1.99 nM) | IC90 (HIV-1, BaL; Human immunodeficiency virus 1, BAL, Monocyte, primary monocytes, stated for both primary cell types, read-out: IC90 values): 1 to 2 ng/mL (≈ 1.99 to 3.98 nM) | IC50 (HIV-1, BaL; Human immunodeficiency virus 1, Monocyte, 264 h, Monocytes, HIV-1 BaL, p24, day 11 post infection, read-out: IC50 day 11): < 1 ng/mL | IC90 (HIV-1, BaL; Human immunodeficiency virus 1, Monocyte, 264 h, Monocytes, HIV-1 BaL, p24, day 11 post infection, read-out: IC90 day 11): 1.9 ng/mL (≈ 3.78 nM) | IC50 (HIV-1, BaL; Human immunodeficiency virus 1, Monocyte, 336 h, Monocytes, HIV-1 BaL, p24, day 14 post infection, read-out: IC50 day 14): 1.1 ng/mL (≈ 2.19 nM) | IC90 (HIV-1, BaL; Human immunodeficiency virus 1, Monocyte, 336 h, Monocytes, HIV-1 BaL, p24, day 14 post infection, read-out: IC90 day 14): 2.1 ng/mL (≈ 4.18 nM) | inhibition of viral replication [4]: strong inhibitor | inhibition of cell growth (Jurkat cells; [9]): did not inhibit growth | resistance of viral RNA to degradation by RNase [1]: showed resistance to degradation by RNaseA | concentrations required for inhibition of fusion (syncytium formation) (gp120/41 mediated fusion): approximately 1 μg/ml | inhibition of cell growth (MT4 cells; [9]): did not inhibit growth | inhibition of cell growth (MOLT4 cells; [9]): did not inhibit growth | inhibition of cell growth (HUT78 cells): did not inhibit growth | inhibition of cell growth (U937 cell line; [9]): did not inhibit growth
